Source: patent US11377442B2, “Small molecule agonists and antagonists of NR2F6 activity” (ZANDER THERAPEUTICS, INC., priority 2016, dated 2022)
Where two headings read alike, the source gives them in different places. Blank lines part the entries; values can stand above or below the molecule they belong to.

Assays:
Format in all cases: cell-based
[1] = target: T1, NR2F6 (Homo sapiens, UniProt P10588); assay: NR2F6 agonist screening, Firefly signal cmpd/DMSO
T1 construct: expressed in transfected cells; also transient transfection
T1 sequence (P10588 1-404): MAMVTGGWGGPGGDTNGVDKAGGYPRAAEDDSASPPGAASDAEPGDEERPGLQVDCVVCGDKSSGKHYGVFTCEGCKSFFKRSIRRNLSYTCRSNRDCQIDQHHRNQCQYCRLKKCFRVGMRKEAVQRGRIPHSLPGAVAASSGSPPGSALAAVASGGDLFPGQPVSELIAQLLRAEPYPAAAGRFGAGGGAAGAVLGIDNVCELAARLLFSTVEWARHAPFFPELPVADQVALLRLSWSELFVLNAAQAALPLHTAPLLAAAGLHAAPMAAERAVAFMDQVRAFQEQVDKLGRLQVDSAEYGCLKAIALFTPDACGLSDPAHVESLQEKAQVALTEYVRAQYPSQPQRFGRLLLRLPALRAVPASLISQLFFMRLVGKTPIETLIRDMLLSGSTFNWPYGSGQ

[2] = target: T2, NR2F6 LBD (Homo sapiens, UniProt P10588); assay: NR2F6 LBD transient transfection; details: LBD
T2 construct: expressed in transfected cells
T2 sequence (P10588 165-393 limits assumed): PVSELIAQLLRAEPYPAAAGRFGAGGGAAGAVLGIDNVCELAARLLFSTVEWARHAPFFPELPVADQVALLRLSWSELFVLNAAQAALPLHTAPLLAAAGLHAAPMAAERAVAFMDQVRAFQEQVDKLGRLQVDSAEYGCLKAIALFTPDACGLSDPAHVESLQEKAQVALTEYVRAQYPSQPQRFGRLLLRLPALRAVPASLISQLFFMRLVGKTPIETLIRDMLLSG
In short: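 LBD-transfected cells treated at 40, 10, 2 and 0.5 μM (4 replicates); cytotoxicity measured in parallel, normalized to DMSO (0%) and zero signal (100%). Higher concentrations excluded where signal loss reflected toxicity.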

[3] = system: Renilla; assay: Renilla signal in NR2F6 agonist screening, cmpd/DMSO; details: Renilla, F4
[4] = system: HEK293 pGL4; assay: Firefly_pGL signal, cmpd/DMSO (pGL4 control cells); details: Homo sapiens
[5] = read-out: Renilla, F4, cmpd/DMSO (mean)
[6] = 1% FBS, read-out: Renilla, F4, 1% FBS, cmpd/DMSO (mean)
[7] = 10% FBS, read-out: Renilla, F4, 10% FBS, cmpd/DMSO (mean)
[8] = HEK293, 0.5 uM, pGL4, read-out: Firefly pGL4, cmpd/DMSO (mean)
[9] = HEK293, 2 uM, pGL4, read-out: Firefly pGL4, cmpd/DMSO (mean)
[10] = HEK293, 10 uM, pGL4, read-out: Firefly pGL4, cmpd/DMSO (mean)
[11] = HEK293, 40 uM, pGL4, read-out: Firefly pGL4, cmpd/DMSO (mean)
[12] = HEK293, pGL4, 1% FBS, 0.5 uM, read-out: Firefly, pGL4, 1% FBS, cmpd/DMSO (mean)
[13] = HEK293, pGL4, 1% FBS, 2 uM, read-out: Firefly, pGL4, 1% FBS, cmpd/DMSO (mean)
[14] = HEK293, pGL4, 1% FBS, 10 uM, read-out: Firefly, pGL4, 1% FBS, cmpd/DMSO (mean)
[15] = HEK293, pGL4, 1% FBS, 40 uM, read-out: Firefly, pGL4, 1% FBS, cmpd/DMSO (mean)
[16] = HEK293, pGL4, 10% FBS, 0.5 uM, read-out: Firefly, pGL4, 10% FBS, cmpd/DMSO (mean)
[17] = HEK293, pGL4, 10% FBS, 2 uM, read-out: Firefly, pGL4, 10% FBS, cmpd/DMSO (mean)
[18] = HEK293, pGL4, 10% FBS, 10 uM, read-out: Firefly, pGL4, 10% FBS, cmpd/DMSO (mean)
[19] = HEK293, pGL4, 10% FBS, 40 uM, read-out: Firefly, pGL4, 10% FBS, cmpd/DMSO (mean)

- Firefly F4, cmpd/DMSO (mean) ([1]; 0.5 uM): 1.6
- Firefly F4, cmpd/DMSO (mean) ([1]; 2 uM): 1.6
- Firefly F4, cmpd/DMSO (mean) ([1]; 10 uM): 6.2
- Firefly F4, cmpd/DMSO (mean) ([1]; 40 uM): 2.4
- F4, Firefly/Renilla for S/B(F4) > 3 ([1]; 1% FBS, 10 uM): 3.2
- Firefly, F4/pGL4 for S/B(F4) > 3 ([1]; 1% FBS, 10 uM): 2.5
- F4, Firefly/Renilla for S/B(F4) > 3 ([1]; 10% FBS, 10 uM): 2.1
- Firefly, F4/pGL4 for S/B(F4) > 3 ([1]; 10% FBS, 10 uM): 1.8
- F4, Firefly/Renilla for S/B(F4) > 3 ([1]; 10% FBS, 40 uM): 2.8
- Firefly, F4/pGL4 for S/B(F4) > 3 ([1]; 10% FBS, 40 uM): 1.8
- Firefly, F4, 1% FBS, cmpd/DMSO (mean) ([1]; 1% FBS, 0.5 uM): 1.1
- Firefly, F4, 1% FBS, cmpd/DMSO (mean) ([1]; 1% FBS, 2 uM): 1.4
- Firefly, F4, 1% FBS, cmpd/DMSO (mean) ([1]; 1% FBS, 10 uM): 5.2
- Firefly, F4, 1% FBS, cmpd/DMSO (mean) ([1]; 1% FBS, 40 uM): 0.5
- Firefly, F4, 10% FBS, cmpd/DMSO (mean) ([1]; 10% FBS, 0.5 uM): 1.2
- Firefly, F4, 10% FBS, cmpd/DMSO (mean) ([1]; 10% FBS, 2 uM): 1.3
- Firefly, F4, 10% FBS, cmpd/DMSO (mean) ([1]; 10% FBS, 10 uM): 5.1
- Firefly, F4, 10% FBS, cmpd/DMSO (mean) ([1]; 10% FBS, 40 uM): 15
- Firefly LBD, cmpd/DMSO (mean) ([2]; 0.5 uM): 1.2
- Firefly LBD, cmpd/DMSO (mean) ([2]; 2 uM): 1.8
- Firefly LBD, cmpd/DMSO (mean) ([2]; 10 uM): 3.8
- Firefly LBD, cmpd/DMSO (mean) ([2]; 40 uM): 0.4
Structure (SMILES): CC(C)N[C@H]1CS(=O)(=O)C[C@@H]1S(=O)(=O)c1ccc(Cl)cc1 [Compound D118]
- fold induction at 0.5 µM [3, 5]: 1.1
- fold induction at 2 µM [3, 5]: 1.3
- fold induction at 10 µM [3, 5]: 1.7
- fold induction at 40 µM [3, 5]: 1.9
- fold induction at 0.5 µM [3, 6]: 1
- fold induction at 2 µM [3, 6]: 1.1
- fold induction at 10 µM [3, 6]: 1.6
- fold induction at 40 µM [3, 6]: 2.3
- fold induction at 0.5 µM [3, 7]: 1.2
- fold induction at 2 µM [3, 7]: 1.5
- fold induction at 10 µM [3, 7]: 2.5
- fold induction at 40 µM [3, 7]: 5.2
- fold induction at 0.5 µM [4, 8]: 1.2
- fold induction at 2 µM [4, 9]: 1.5
- fold induction at 10 µM [4, 10]: 4.8
- fold induction at 40 µM [4, 11]: 0.4
- fold induction at 0.5 µM [4, 12]: 0.9
- fold induction at 2 µM [4, 13]: 1.2
- fold induction at 10 µM [4, 14]: 2.1
- fold induction at 40 µM [4, 15]: 0.9
- fold induction at 0.5 µM [4, 16]: 1.2
- fold induction at 2 µM [4, 17]: 1.2
- fold induction at 10 µM [4, 18]: 2.9
- fold induction at 40 µM [4, 19]: 8.1

- Firefly F4, cmpd/DMSO (mean) ([1]; 0.5 uM): 0.9
- Firefly F4, cmpd/DMSO (mean) ([1]; 2 uM): 1.9
- Firefly F4, cmpd/DMSO (mean) ([1]; 10 uM): 4.9
- Firefly F4, cmpd/DMSO (mean) ([1]; 40 uM): 1.9
- F4, Firefly/Renilla for S/B(F4) > 3 ([1]; 1% FBS, 10 uM): 2.3
- Firefly, F4/pGL4 for S/B(F4) > 3 ([1]; 1% FBS, 10 uM): 1.2
- F4, Firefly/Renilla for S/B(F4) > 3 ([1]; 10% FBS, 10 uM): 2.4
- Firefly, F4/pGL4 for S/B(F4) > 3 ([1]; 10% FBS, 10 uM): 1.4
- F4, Firefly/Renilla for S/B(F4) > 3 ([1]; 10% FBS, 40 uM): 1.3
- Firefly, F4/pGL4 for S/B(F4) > 3 ([1]; 10% FBS, 40 uM): 2.9
- Firefly, F4, 1% FBS, cmpd/DMSO (mean) ([1]; 1% FBS, 0.5 uM): 1.5
- Firefly, F4, 1% FBS, cmpd/DMSO (mean) ([1]; 1% FBS, 2 uM): 1.2
- Firefly, F4, 1% FBS, cmpd/DMSO (mean) ([1]; 1% FBS, 10 uM): 3.9
- Firefly, F4, 1% FBS, cmpd/DMSO (mean) ([1]; 1% FBS, 40 uM): 0.1
- Firefly, F4, 10% FBS, cmpd/DMSO (mean) ([1]; 10% FBS, 0.5 uM): 1.2
- Firefly, F4, 10% FBS, cmpd/DMSO (mean) ([1]; 10% FBS, 2 uM): 1.4
- Firefly, F4, 10% FBS, cmpd/DMSO (mean) ([1]; 10% FBS, 10 uM): 3.3
- Firefly, F4, 10% FBS, cmpd/DMSO (mean) ([1]; 10% FBS, 40 uM): 3.4
- Firefly LBD, cmpd/DMSO (mean) ([2]; 0.5 uM): 1.0
- Firefly LBD, cmpd/DMSO (mean) ([2]; 2 uM): 1.5
- Firefly LBD, cmpd/DMSO (mean) ([2]; 10 uM): 3.6
- Firefly LBD, cmpd/DMSO (mean) ([2]; 40 uM): 0.7
Structure (SMILES): CCC(C)N[C@H]1CS(=O)(=O)C[C@@H]1S(=O)(=O)c1ccc(Cl)cc1 (some centres unmarked) [Compound D121]
- fold induction at 0.5 µM [3, 5]: 1.2
- fold induction at 2 µM [3, 5]: 1.1
- fold induction at 10 µM [3, 5]: 1.5
- fold induction at 40 µM [3, 5]: 1.7
- fold induction at 0.5 µM [3, 6]: 1.1
- fold induction at 2 µM [3, 6]: 1.4
- fold induction at 10 µM [3, 6]: 1.7
- fold induction at 40 µM [3, 6]: 1.3
- fold induction at 0.5 µM [3, 7]: 1
- fold induction at 2 µM [3, 7]: 1.1
- fold induction at 10 µM [3, 7]: 1.4
- fold induction at 40 µM [3, 7]: 2.6
- fold induction at 0.5 µM [4, 8]: 1.4
- fold induction at 2 µM [4, 9]: 1.6
- fold induction at 10 µM [4, 10]: 3.9
- fold induction at 40 µM [4, 11]: 0.7
- fold induction at 0.5 µM [4, 12]: 1.1
- fold induction at 2 µM [4, 13]: 1.1
- fold induction at 10 µM [4, 14]: 3.2
- fold induction at 40 µM [4, 15]: 0.8
- fold induction at 0.5 µM [4, 16]: 1.1
- fold induction at 2 µM [4, 17]: 1.4
- fold induction at 10 µM [4, 18]: 2.4
- fold induction at 40 µM [4, 19]: 1.2
